Results published in US9895344B2, “Treating various disorders with 7,8-dihydroxyflavone and derivatives thereof” (EMORY UNIVERSITY, priority 2008, dated 2018).

What was measured:
[1] = system: T48 cells; assay: Fluorescent apoptotic assay (Staurosporine, MR(DEVD)2) in TrkB stably transfected T48 cells; type: cell-based, murine
Description: Create and test reporter cell lines. In order to identify small molecules that mimic BDNF and activate TrkB, TrkB stably transfected murine cell lines were created. The T48 and T62 cell lines were created by transfecting basal forebrain SN56 cells, which express negligible TrkB, with a TrkB expression construct. […] To test resistance to apoptosis, SN56 cells and the T48 cell line were either untreated or treated with BDNF, and then subjected to an apoptotic assay. Briefly, the cells were treated with 0.75 μM Staurosporine for 9 hours, and 1 hour before the termination of the experiment, the cells were treated with 10 μM MR (DEVD)2. The cells were then fixed with 4% paraformaldehyde for 15 minutes, washed with phosphate buffered saline (PBS), and incubated with Hoechst 33342 for 10 minutes. Cover slides were washed with PBS, mounted, and the cells were examined using a fluorescent microscope to see which cells turned red upon caspase cleavage.
Cell-based screen. To screen a large number of chemicals, a cell-based apoptic assay was developed using a cell permeable fluorescent dye, MR (DEVD)2, which turns red upon caspase cleavage in apoptotic cells. SN56 and T48 cells were plated at 10,000 cells per well in multiple 96-well plates and exposed to 2000 biologically active compounds from the Spectrum Collection Library for 30 minutes at a concentration of 10 μM in DMSO. Following exposure to the compounds, the cells were subjected to the developed fluorescent apoptotic assay described above (method schematically shown in FIG. 2).
In the initial screen, 5 of the 66 positive compounds were flavone derivatives or similar compounds. […] To compare the apoptosis inhibitory activity, the flavone derivatives were preincubated with SN56 and T48 cells, and subsequently were subjected to the fluorescent apoptotic assay as described above. […] Additionally, the effective concentration at which 50% (EC50) of the cells are protected from apoptosis was determined for 7,8-dihydroxyflavone, Cianidanol, Pinocembrin and Diosmetin.

[2] = system: hippocampal neurons; assay: Oxygen-Glucose Deprivation (OGD) of hippocampal neurons; type: cell-based
Procedure: To explore whether 7,8-dihydroxyflavone exerts any protective effect on hippocampal neurons in Oxygen-Glucose Deprivation (OGD), primary preparations of neurons were treated with BDNF or various flavone derivatives for 30 minutes prior to OGD.

[3] = system: ECD and ICD of TrkA receptor; assay: In vitro binding assay: TrkA ECD and ICD
[4] = molecular target: T1, TrkB ECD truncates (Rattus norvegicus, UniProt Q63604); assay: Mapping assay with TrkB ECD truncation mutants; type: binding; conditions: FIG. 18
T1 construct: made in house
Procedure: (§1) BDNF is known to bind to the region of the TrkB ECD that contains the third leucine-rich motif (LRM), the second cysteine cluster (CC) domain, and the Immunoglobulin 2 (Ig2) domain (Haniu et al., J. Biol. Chem., 272:25296-303, 1997). To map where 7,8-dihydroxyflavone binds on the TrkB ECD, truncation mutants of the ECD were made and in vitro binding assays were conducted.

[5] = system: TrkB ECD truncates; assay: Mapping assay with TrkB ECD truncation mutants; type: binding; conditions: FIG. 18
Procedure: as §1

[6] = system: KA-induced apoptosis in hippocampus; assay: Kainic acid-induced apoptosis in mouse hippocampus (TUNEL); type: in vivo, C57BL/6 mice; conditions: 5 mg/kg intraperitoneally followed by 20 mg/kg KA, 5 days, FIG. 19
Description: Kainic acid (KA) is a potent agonist for the AMPA receptor. Peripheral injections of KA result in recurrent seizures and the subsequent degeneration of select populations of neurons in the hippocampus (Schauwecker and Steward, Proc. Natl. Acad. Sci. USA, 94:4103-8, 1997). KA induces neuronal cell death in a caspase-dependent and independent manners (Faherty et al., Brain Res. Mol. Brain. Res., 70:159-63, 1999; Glassford et al., Neurol. Res., 24:796-800, 2002; Liu et al., Mol. Cell, 29:665-78, 2008). To explore whether 7,8-dihydroxyflavone can block the neurotoxicity initiated by KA, C57BL/6 mice aged 60 days were intraperitoneally injected with either a single dose of 20% DMSO in saline, 20 mg/kg KA (Sigma), or 5 mg/kg of 7,8-dihydroxyflavone followed by 20 mg/kg of KA. In 5 days, the mice were anesthetized, perfused with 4% paraformaldehyde in 0.1M phosphate buffered saline, and the brains were removed, post-fixed overnight, and processed for paraffin embedding. Serial sections of the brain were cut to a thickness of 5 μm and mounted on slides (Superfrost-plus, Fisher; Pittsburgh, Pa.).

[7] = system: immobility; assay: Forced swim test, 5 days intraperitoneal; type: in vivo, mice; conditions: intraperitoneally for 5 days; imipramine 20 mg/kg, amitryptyline 15 mg/kg, 7,8-dihydroxyflavone 5 mg/kg; FIG. 25
Procedure: Adult male mice (2-3 months old, n=8) were randomly submitted, without a pre-swim, to a forced swim test of 6 minutes with immobility recorded in the last 4 minutes. Mice were injected intraperitoneally for 5 days with saline, imipramine (20 mg/kg), amitryptyline (15 mg/kg), or 7,8-dihydroxyflavone (5 mg/kg). The mice were allowed to adapt to the test room for 2 days, and the mice were placed in a clear glass cylinder with a diameter of 16 cm, half-filled with clear water at 24° C. […] Data are presented as mean±SEM; *p<0.05 against vehicle, **P<0.01 against vehicle and ***P<0.0001 against vehicle, student t-test.

[8] = system: KA-induced neuronal apoptosis; assay: Kainic acid time course assay, oral TrkB agonists (caspase-3 immunoblot of brain lysates); type: in vivo, C57BL/6J mice; conditions: 1 mg/kg orally, KA 20 mg/kg i.p., FIG. 30 right
Procedure: Male C57BL/6 mice age 60 days were orally injected with a single dose of 4′-DMA-7,8-DHF or 7,8-DHF (1 mg/kg each). KA (20 mg/kg) was i.p. injected. Animals were continually monitored for 2 hours for the onset of seizure activity. At 0, 4 and 8 hours following TrkB agonist treatment, the animals were sacrificed and the brain lysates were analyzed by immunoblotting with p-TrkB-Y817, active caspase-3 and total TrkB antibodies.
To investigate whether these compounds exert any neuroprotective effects in animals, a time course assay was conducted.

[9] = system: infarct volume
[10] = molecular target: T2, TrkA (Mus musculus, UniProt Q3UFB7); assay: TrkA phosphorylation in mouse brain after intraperitoneal injection; type: in vivo, mice; design: from tissue; host or cells: mouse brain; conditions: 5 mg/kg intraperitoneally, 2 hours after injection, FIG. 12
Procedure: To assess whether 7,8-dihydroxyflavone can provoke TrkB activation in the brain, mice were intraperitoneally injected with a dose of 5 mg/kg and analyzed at various time points. […] Further, as shown in FIG. 12 (right panel), the protein and mRNA levels of the neurotrophic receptors were not altered after treatment with 7,8-dihydroxyflavone.

[11] = molecular target: T2, TrkA; assay: Trk activation in cortical neurons from wild-type and TrkB-null pups: TrkA; type: cell-based, mice; design: endogenous in cells; host or cells: primary cortical neurons of mouse pups; conditions: FIG. 21
Procedure: To determine whether 7,8-dihydroxyflavone can selectively activate TrkB receptor and prevent neuronal cell death, cortical neurons were prepared from homozygous pups of TrkB+/−mice, which were mated to the same genotype. […] Glutamate nonselectively elicited weak TrkA phosphorylation in both wild-type and TrkB-null neurons (FIG. 21, row 3).

T2 sequence (Q3UFB7 34-799): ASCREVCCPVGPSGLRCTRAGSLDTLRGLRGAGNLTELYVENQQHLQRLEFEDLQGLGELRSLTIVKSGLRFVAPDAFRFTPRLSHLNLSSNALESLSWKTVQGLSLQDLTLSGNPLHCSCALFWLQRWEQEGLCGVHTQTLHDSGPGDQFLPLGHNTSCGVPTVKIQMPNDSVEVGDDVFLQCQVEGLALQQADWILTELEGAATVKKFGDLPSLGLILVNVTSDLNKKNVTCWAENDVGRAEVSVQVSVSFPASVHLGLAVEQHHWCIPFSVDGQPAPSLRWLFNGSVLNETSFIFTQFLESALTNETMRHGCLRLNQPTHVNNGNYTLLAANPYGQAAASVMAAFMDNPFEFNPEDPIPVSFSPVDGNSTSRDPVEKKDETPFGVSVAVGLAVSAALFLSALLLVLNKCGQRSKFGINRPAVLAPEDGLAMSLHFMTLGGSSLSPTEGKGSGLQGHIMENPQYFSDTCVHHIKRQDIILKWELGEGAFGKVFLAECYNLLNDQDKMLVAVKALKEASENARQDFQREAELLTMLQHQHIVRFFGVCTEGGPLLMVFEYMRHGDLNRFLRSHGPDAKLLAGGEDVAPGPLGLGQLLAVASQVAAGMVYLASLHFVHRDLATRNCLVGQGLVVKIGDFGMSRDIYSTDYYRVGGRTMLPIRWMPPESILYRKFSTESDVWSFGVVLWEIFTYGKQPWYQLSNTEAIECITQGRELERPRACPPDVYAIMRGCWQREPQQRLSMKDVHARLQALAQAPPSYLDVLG

For O=c1cc(-c2ccccc2)oc2c(O)c(O)ccc12 [7,8-dihydroxyflavone], the EC50 ([1]; Mus musculus, read-out: effective concentration at which 50% (EC50) of the cells are protected from apoptosis) was 35 nM, the “suppression of apoptosis in T48 cell line” value ([1]; Staurosporine-induced apoptosis, FIG. 1B and FIG. 4) was “strongly suppressed apoptosis” and the “protective effect in OGD” value ([2]; 30 minutes prior to OGD, apoptotic analysis in 3 hours, FIG. 7 left) was “most potent protective effects among the compounds”. For the same molecule, the “titration assay of protection in OGD” value ([2]; FIG. 7 right) was “protects neurons in a dose-dependent manner”, the “binding to TrkA ECD or ICD” value [3] was “Neither the ECD nor ICD of TrkA receptor was capable of binding” and the “association with the ECD” value [4] was “strongly associated”. For the same molecule, the “binding to the ICD” value [4] was “did not bind”, the “association with the CC-2 domain” value [5] was “strongly associated” and the “association with the LRM-domain” value [5] was “associated less strongly”. The “binding to the CC-1 domain” value [5] was “did not bind”, the “KA-induced apoptosis in hippocampus” value [6] was “decreased KA-induced apoptosis” and the swimming immobility [7] was “reduced the immobility”. For the same molecule, the “KA-induced caspase-3 activation at 4 h” value [8] was “reduced”, the “active caspase-3 at 8 h” value [8] was “slightly increased” and the “survival of ischemic insult and treatment” value ([9]; 5 mg/kg intraperitoneally) was “All animals included in the study survived”. The infarct volumes ([9]; 5 mg/kg intraperitoneally 5 minutes prior to reperfusion, TTC 24 hours after MCAO, FIG. 20) was “reduced infarct volumes”, the “TrkA phosphorylation in the brain” value [10] was “not TrkA” and the TrkA activation [11] was “not TrkA receptor”.
